# Source: EP4585599A1, “NITROGEN-CONTAINING FUSED RING COMPOUND, INTERMEDIATE THEREOF, PREPARATION METHOD THEREFOR AND USE THEREOF” (Hangzhou Synrx Therapeutics Biomedical Technology Co., Ltd., priority 2022, dated 2024)
# Read-outs that look alike come from different tables or passages of the source.
# Experiments:
# cells = settings: Homo sapiens, DLD-1, 240 h
# Solubility assay = settings: pH 7.4, aqueous buffer, kinetic from dmso stock; for solubility at 2 h: phosphate buffer
# Procedure: 1) Prepare 0.1 M Na2PO4 buffer (pH 7.4): 11 g of Na2HPO4 (FW: 141.96) and 3.5 g of NaH2PO4_2H2O (FW: 156.03) were added to 1L of Mili-Q water, with pH adjusted to 7.4 using phosphoric acid or sodium hydroxide. 2) 10 µL of the compound to be tested (concentration: 10 mM in DMSO) was added to 990 µL of Na2PO4 buffer (final DMSO concentration: 1%) prepared in Step 1). 3) The sample tube was shaken at room temperature for 2 hours (1000 rpm/min). 4) Prepare the calibration curve: a) Prepare 300 µM spiking solution (SS): 6 µL (10 mM in DMSO) of the stock solution of the compound to be tested was added to 194 µL of MeOH/ACN (4:1); and b) Draw the standard curve.
# 5) The samples were centrifuged (10 min, 12,000 rpm) to precipitate insoluble particles. The supernatant was filtered with a 0.22 µm filter membrane, and then transferred to a new centrifuge tube. 6) The supernatant was diluted 10-fold with 100 mM buffer. The supernatant (10 µL) was added to the buffer (100 mM, 90 µL) and diluted 10-fold. 7) The sample was prepared under LC-MS/MS (API 4000) detection.
# 10 µL of the sample (10-fold dilution) and a standard curve sample were added to 400 µL of (MeOH: ACN=1:1) solution, and detected on the instrument, and the solubility value was calculated according to the standard curve.
# [1] = Mouse PK assay after oral administration; settings: for MRT / half-life / bioavailability: mouse, po; for MRT / half-life / Area under curve (0-t; hr * ng/mL) / Peak concentration / bioavailability: plasma; for Time to peak / Area under curve (0-t; hr * ng/mL) / Peak concentration: mice, oral
# Procedure: The objective of this experiment was to study the pharmacokinetics of the test compound in ICR mice (male, 18-22 g, 4-6 weeks old, Beijing Vital River Laboratory Animal Technology Co., Ltd.) after oral administration. The specific experimental procedures were as follows: • 1) The compound was dissolved in 5% DMSO + 40% PEG + 20% (10% TPGS) in water + 35% water at a concentration of 0.5 mg/mL, and then administered orally (5 mL/Kg); and • 2) Blood samples were collected, with 0.03 mL collected at 0.25 h, 0.5 h, 1 h, 2 h, 4 h, 8 h, and 24 h, and EDTA-K2 was added. […] The blood was centrifuged for 5 min at 4000 g in a centrifuge at 4°C to collect plasma. Plasma samples were aliquoted into clean polyethylene microcentrifuge tubes and then stored in a freezer at -75 ± 15°C before analysis; and • 3) Samples were analyzed, and the concentration of the compound in each plasma sample was analyzed by LC-MS/MS. For plasma measurements, pharmacokinetic parameters were calculated using WinNonlin (PhoenixTM, version 8.3) or other similar software.
# [2] = target: T1, helicase domain of the Pol θ protein (Homo sapiens, UniProt O75417); assay: Biochemical Activity Assay (ADP Glo Assay) of Pol θ inhibitor, ATPase activity
# T1 construct: The helicase domain of the Pol θ protein was purified from insect protein expression system; made in house; host or cells: insect protein expression system
# [3] = mouse, microsomes
# Procedure: (§1) a) Phosphate buffer solution (PBS): 100 mM, pH=7.4±0.1.
# (§2) 73.21 g of dipotassium phosphate trihydrate K2HPO4·3H2O (MW=228.22) and 10.78 g of potassium dihydrogen phosphate KH2PO4 (MW=136.09) were dissolved in 4000 mL of pure water, with pH adjusted to 7.4 ± 0.1 using phosphoric acid or potassium hydroxide.
# (§3) b) Microsome working solution: 1.0 mg/mL.
# (§4) The purchased mouse liver microsomes (IPHASE, Cat. No.: 0121E1.01, Lot. No.: 22F001) were of 20 mg/mL (10 mg, 0.5 mL), with 225 µL added to 4275 µL of PBS solution to prepare 1.0 mg/mL microsome working solution.
# (§5) (Note whether the precipitation occurred) • III, 200 µL of the 40 mM NADPH stock solution, 2.0 mL of the 12 mM magnesium chloride stock solution, and 1.80 mL of the PBS solution were used to prepare the working solution of the NADPH regeneration system, containing the 2 mM NADPH solution and the 6 mM magnesium chloride mixture.
# (§6) d) Stop solution: containing 200 ng/mL tolbutamide acetonitrile solution. • I, 6.006 mg of tolbutamide (MV=270.35, 99.9%) solids were weighed, and 30 mL of acetonitrile was added to prepare the 200 µg/mL of tolbutamide stock solution. • II, 500 mL of acetonitrile was added to 500 µL of the 200 µg/mL tolbutamide stock solution to obtain the tolbutamide acetonitrile solution with a concentration of 200 ng/mL.
# (§7) e) Test sample/reference working solution: 100 µM test sample/reference working solution • I, 1 mL of 1.0 mg/mL testosterone (MV=288.42) solution was purchased, and 155.8 µL of ACN was added to prepare a testosterone stock solution with a concentration of 3 mM. • II, 1450 µL of acetonitrile was added to 50 µL of the 3 mM testosterone stock solution to prepare the 100 µM testosterone working solution. • III, 6.98 mg of propafenone hydrochloride was weighed, and 1.8433 mL of acetonitrile was added to dissolve the propafenone hydrochloride; and 5.67 mg of diclofenac sodium was weighed, and 1.783 mL of acetonitrile was added to dissolve the diclofenac sodium. 10 mM propafenone stock solution and 10 mM diclofenac stock solution were prepared respectively. • IV, 10 µL of the propafenone stock solution and 10 mL of the diclofenac stock solution were each added with 990 µL of acetonitrile to prepare 100 µM propafenone working solution and 100 µM diclofenac working solutions.
# (§8) • a) 8 incubation plates were prepared, named T0, T5, T15, T30, T45, T60, Blank60 and NCF60, respectively. • b) 100 µL of microsome working solution was added to each of T0, T5, T15, T30, T45, T60, Blank60 and NCF60; 2 µL of the test (reference) working solution was added to each of T0, T5, T15, T30, T45, T60 and NCF60; and 2 µL of acetonitrile was added to Blank60. • c) T5, T15, T30, T45, T60, and Blank60 were pre-incubated in a 37°C water bath for 10 minutes. • d) 600 µL of the stop solution was added to the sample T0 to stop the reaction; and 98 µL of phosphate buffer solution (PBS) was added to NCF60, and NCF60 samples without the NADPH regeneration system were taken as negative control. • e) 98 µL of the working solution of the NADPH regeneration system was supplemented to the sample T0 that is stopped in the previous step; and after pre-incubation, 98 µL of the working solution of the NADPH regeneration system was added to each of T5, T15, T30, T45, T60, and Blank60 to initiate the reaction.
# in vitro = settings: mouse, microsomes, pH 7.4
# Procedure: as §1, §2, §3, §4, §5, §6, §7, §8
# [4] = read-out: Cell viability assay IC50
# [5] = Metabolic stability of mouse liver microsome assay; settings: liver microsomes, pH 7.4
# Procedure: as §1, §2, §3, §4, §5, §6, §7, §8
# [6] = read-out: Cell viability assay IC50 (nM), CTG assay, CellTiter Glo, read on Day 10, cell line not given
# [7] = ADP-Glo assay, ATPase activity of Pol θ helicase domain, ssDNA substrate; read-out: Biochemical assay IC50
# [8] = read-out: Cell viability assay IC50 (nM), CTG on Day 10, cell line not given (method: DLD1 and DLD1^-/- cells)
# [9] = ADP-Glo, ssDNA substrate, 60 min at room temperature; read-out: Biochemical assay IC50
# [10] = read-out: Cell viability assay IC50 (nM)
# T1 sequence (O75417 102-554 limits assumed): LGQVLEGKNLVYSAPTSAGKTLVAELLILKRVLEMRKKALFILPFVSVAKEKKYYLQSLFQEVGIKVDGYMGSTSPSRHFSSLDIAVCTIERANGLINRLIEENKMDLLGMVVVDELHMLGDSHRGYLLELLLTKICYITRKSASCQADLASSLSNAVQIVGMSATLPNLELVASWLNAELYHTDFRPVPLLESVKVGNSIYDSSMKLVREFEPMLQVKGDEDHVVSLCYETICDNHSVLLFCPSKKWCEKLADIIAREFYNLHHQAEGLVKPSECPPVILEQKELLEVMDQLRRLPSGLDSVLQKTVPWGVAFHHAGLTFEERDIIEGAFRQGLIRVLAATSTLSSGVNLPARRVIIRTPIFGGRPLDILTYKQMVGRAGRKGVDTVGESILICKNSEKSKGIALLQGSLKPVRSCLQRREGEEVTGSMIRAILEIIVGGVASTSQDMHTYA
Compound,IC50 (cells; [6]) [nM],solubility at 2 h (Solubility assay) [µM],"MRT ([1]; male, ICR, 30 mg/kg) [h]","half-life ([1]; male, ICR, 30 mg/kg) [h]",Time to peak ([1]; administration dose 30 mg/kg) [h],Area under curve (0-t; hr * ng/mL) ([1]; administration dose 30 mg/kg) [µg·h/mL],Peak concentration ([1]; administration dose 30 mg/kg) [ng/mL],"IC50 [2, 7] [nM]","Half-life (T1/2, min) [3]","bioavailability ([1]; male, ICR, 30 mg/kg) [%]",IC50 (cells; [8]) [nM],half-life at 1 µM (in vitro) [h],"IC50 [2, 9] [nM]",further results
"COc1cnc(C(F)F)cc1-c1cc(C)ncc1C(=O)Nc1nc2cnc(-c3c(C)nnn3C)cc2s1 [Example 180, 2'-(difluoromethyl)-N-(6-(1,4-dimethyl-1H-1,2,3-triazol-5-yl)thiazolo[4,5-c]pyridin-2-yl) -5'-methoxy-6-methyl-[4,4'-bipyridine]-3-carboxamide]",5.62,91.1,2.88,1.75,1.08,176.788,44133,1.63,∞,–,–,–,–,–
COc1cnc(Cl)c(F)c1-c1cc(C)ncc1C(=O)Nc1nc2cnc(-c3c(C)nnn3C)c(F)c2s1 [Example 217],< 1.52,82.6,3.95,2.16,0.67,852.39,156130,3.63,∞,259,–,–,–,–
COc1cnc(Cl)cc1-c1cc(C)ncc1C(=O)Nc1nc2ncc(N3CCC(O)CC3)nc2s1 [Example 70],14.2,70.6,–,–,–,–,–,2.73,–,–,< 100,8.88,< 50,"MRT ([1]; male, ICR, 100 mg/kg): 2.2 h; half-life ([1]; male, ICR, 100 mg/kg): 2.91 h; Time to peak ([1]; administration dose 100 mg/kg): 0.5 h; Area under curve (0-t; hr * ng/mL) ([1]; administration dose 100 mg/kg): 60.434 µg·h/mL; Peak concentration ([1]; administration dose 100 mg/kg): 22767 ng/mL"
COc1cnc(Cl)cc1-c1cc(C)ncc1C(=O)Nc1nc2cnc(C3=CCC(O)CC3)cc2s1 (stereo not drawn) [Example 11],11.2,76.4,–,–,–,–,–,3.11,–,–,< 100,3.75,< 50,"MRT ([1]; male, ICR, 25 mg/kg): 3.15 h; half-life ([1]; male, ICR, 25 mg/kg): 2.19 h; Time to peak ([1]; administration dose 25 mg/kg): 0.83 h; Area under curve (0-t; hr * ng/mL) ([1]; administration dose 25 mg/kg): 26.324 µg·h/mL; Peak concentration ([1]; administration dose 25 mg/kg): 7407 ng/mL"
COc1cnc(Cl)cc1-c1cc(C)ncc1C(=O)Nc1nc2ccc(N3CCC(O)CC3)nc2s1 [Example 46],–,61.5,–,–,–,–,–,8.31,–,–,–,7.9,< 50,"IC50 (cells; [10]): < 100 nM; IC50 [4]: 60.7 nM; MRT ([1]; male, ICR, 25 mg/kg): 4.13 h; bioavailability ([1]; male, ICR, 25 mg/kg): 127%; half-life ([1]; male, ICR, 25 mg/kg): 1.59 h; Time to peak ([1]; administration dose 25 mg/kg): 2.0 h; Area under curve (0-t; hr * ng/mL) ([1]; administration dose 25 mg/kg): 46.041 µg·h/mL; Peak concentration ([1]; administration dose 25 mg/kg): 7217 ng/mL"
"COc1cnc(Cl)cc1-c1cc(C)ncc1C(=O)Nc1nc2cnc(-c3c(C)nnn3C)cc2s1 [Example 175, 2'-chloro-N-(6-(1,4-dimethyl-1H-1,2,3-triazol-5-yl)thiazolo[4,5-c]pyridin-2-yl)-5'-methoxy-6-methyl-[4,4'-bipyridine]-3-carboxamide]",10,4.61,4.58,2.68,1.67,293.209,42933,1.84,–,151,–,10.5,–,–
COc1cnc(C(F)F)cc1-c1cc(C)ncc1C(=O)Nc1nc2cnc(-c3c(C)noc3C)cc2s1 [Example 207],8.57,58.7,5.13,1.97,1.67,581.387,52444,3.41,–,311,–,14.4,–,–
COc1cnc(Cl)cc1-c1cc(C)ncc1C(=O)Nc1nc2cnc(-c3c(C)cnn3C)cc2s1 [Example 87],6.81,79.7,–,–,–,–,–,1.91,–,–,< 100,14.4,< 50,"MRT ([1]; male, ICR, 100 mg/kg): 3.45 h; half-life ([1]; male, ICR, 100 mg/kg): 2.12 h; Time to peak ([1]; administration dose 100 mg/kg): 0.25 h; Area under curve (0-t; hr * ng/mL) ([1]; administration dose 100 mg/kg): 300.735 µg·h/mL; Peak concentration ([1]; administration dose 100 mg/kg): 74833 ng/mL"
COc1cnc(Cl)c(F)c1-c1cc(C)ncc1C(=O)Nc1nc2cnc(-c3c(C)nnn3C)cc2s1 [Example 172],–,63.7,5.91,5.1,0.25,429.051,43555,2.84,∞,206,–,–,–,–
COc1cnc(Cl)cc1-c1cc(C)ncc1C(=O)Nc1nc2cnc(-c3c(C)noc3C)cc2s1 [Example 155],–,–,–,–,1.0,321.917,43083,–,–,–,–,–,–,"IC50 (cells; [10]): 19.2 nM; half-life at 1 µM [5]: 11.6 h; solubility (Solubility assay; 0.1 m sodium phosphate buffer): 7.81 µM; MRT ([1]; 30 mg/kg): 4.56 h; half-life ([1]; 30 mg/kg): 2.26 h; IC50 ([2]; read-out: Biochemical assay IC50; ADP-Glo assay, ATPase activity of Pol θ helicase domain, ssDNA substrate): 5.75 nM"
